Source: PubChem BioAssay (NCI)
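Values below derive from 48-hour exposures of cells grown in 96-well plates, with endpoints linearly interpolated between the two concentrations bracketing the appropriate inhibition level. GI50 marks 50% less growth. Definition used: TGI = concentration required for complete inhibition of growth.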

Legend:
Assay in all cases: NCI-60 cell line screen, 48 h
786-0 renal = test system: 786-0 renal
A498 renal = test system: A498 renal
A549 NSCLC = test system: A549 NSCLC
CAKI-1 renal = test system: CAKI-1 renal
CCRF-CEM leukemia = test system: CCRF-CEM leukemia
COLO 205 colon = test system: COLO 205 colon
DU-145 prostate = test system: DU-145 prostate
HCT-116 colon = test system: HCT-116 colon
HL-60(TB) leukemia = test system: HL-60(TB) leukemia
HOP-62 NSCLC = test system: HOP-62 NSCLC
HS 578T breast = test system: HS 578T breast
IGROV1 ovarian = test system: IGROV1 ovarian
K-562 leukemia = test system: K-562 leukemia
KM12 colon = test system: KM12 colon
LOX IMVI melanoma = test system: LOX IMVI melanoma
M14 melanoma = test system: M14 melanoma
MALME-3M melanoma = test system: MALME-3M melanoma
MCF7 breast = test system: MCF7 breast
MDA-MB-231 breast = test system: MDA-MB-231 breast
MDA-MB-435 = test system: MDA-MB-435
MOLT-4 leukemia = test system: MOLT-4 leukemia
NCI-H226 lung = test system: NCI-H226 lung
NCI-H23 lung = test system: NCI-H23 lung
NCI-H460 lung = test system: NCI-H460 lung
NCI-H522 lung = test system: NCI-H522 lung
NCI/ADR-RES ovarian = test system: NCI/ADR-RES ovarian
OVCAR-3 ovarian = test system: OVCAR-3 ovarian
OVCAR-4 ovarian = test system: OVCAR-4 ovarian
OVCAR-5 ovarian = test system: OVCAR-5 ovarian
OVCAR-8 ovarian = test system: OVCAR-8 ovarian
PC-3 prostate = test system: PC-3 prostate
RPMI-8226 leukemia = test system: RPMI-8226 leukemia
RXF 393 renal = test system: RXF 393 renal
SF-268 CNS = test system: SF-268 CNS
SF-295 CNS = test system: SF-295 CNS
SF-539 CNS = test system: SF-539 CNS
SK-MEL-2 melanoma = test system: SK-MEL-2 melanoma
SK-MEL-28 melanoma = test system: SK-MEL-28 melanoma
SK-MEL-5 melanoma = test system: SK-MEL-5 melanoma
SK-OV-3 ovarian = test system: SK-OV-3 ovarian
SN12C renal = test system: SN12C renal
SNB-19 CNS = test system: SNB-19 CNS
SR leukemia = test system: SR leukemia
SW-620 colon = test system: SW-620 colon
T-47D breast = test system: T-47D breast
TK-10 renal = test system: TK-10 renal
U251 CNS = test system: U251 CNS
UACC-257 melanoma = test system: UACC-257 melanoma
UACC-62 melanoma = test system: UACC-62 melanoma
UO-31 renal = test system: UO-31 renal

Question: With `Nc1cc(N)c2nc(-c3ccccc3)c(Sc3ccc(Cl)c(Cl)c3)nc2c1` as the compound, how does the GI50 (786-0 renal) read?
Answer: 22 µM

Question: And the TGI (786-0 renal)?
Answer: 92.1 µM

Question: What about the GI50 (A498 renal) of the same compound?
Answer: 21.9 µM

Question: What about the TGI (A498 renal) of the same compound?
Answer: 49.9 µM

Question: What about the GI50 (A549 NSCLC) of the same compound?
Answer: 13.6 µM

Question: What about the TGI (A549 NSCLC) of the same compound?
Answer: 51.9 µM

Question: And the GI50 (CAKI-1 renal)?
Answer: 14 µM

Question: What about the TGI (CAKI-1 renal) of the same compound?
Answer: 41.1 µM

Question: What about the GI50 (CCRF-CEM leukemia) of the same compound?
Answer: 2.52 µM

Question: And the TGI (CCRF-CEM leukemia)?
Answer: > 100 µM

Question: What about the GI50 (COLO 205 colon) of the same compound?
Answer: 10.8 µM

Question: What about the TGI (COLO 205 colon) of the same compound?
Answer: 33.6 µM

Question: What about the GI50 (DU-145 prostate) of the same compound?
Answer: 11.1 µM

Question: What about the TGI (DU-145 prostate) of the same compound?
Answer: 25 µM

Question: And the GI50 (HCT-116 colon)?
Answer: 9.43 µM

Question: And the TGI (HCT-116 colon)?
Answer: 47.9 µM

Question: What about the GI50 (HL-60(TB) leukemia) of the same compound?
Answer: 8.02 µM

Question: What about the TGI (HL-60(TB) leukemia) of the same compound?
Answer: > 100 µM

Question: What about the GI50 (HOP-62 NSCLC) of the same compound?
Answer: 12.4 µM

Question: And the TGI (HOP-62 NSCLC)?
Answer: 78.5 µM

Question: What about the GI50 (HS 578T breast) of the same compound?
Answer: 30 µM

Question: What about the TGI (HS 578T breast) of the same compound?
Answer: > 100 µM

Question: What about the GI50 (IGROV1 ovarian) of the same compound?
Answer: 2.93 µM

Question: And the TGI (IGROV1 ovarian)?
Answer: 27.8 µM

Question: What about the GI50 (K-562 leukemia) of the same compound?
Answer: 16 µM

Question: What about the TGI (K-562 leukemia) of the same compound?
Answer: > 100 µM

Question: And the GI50 (KM12 colon)?
Answer: 11.3 µM

Question: And the TGI (KM12 colon)?
Answer: > 100 µM

Question: What about the GI50 (LOX IMVI melanoma) of the same compound?
Answer: 7.36 µM

Question: What about the TGI (LOX IMVI melanoma) of the same compound?
Answer: 24.5 µM

Question: What about the GI50 (M14 melanoma) of the same compound?
Answer: 32.2 µM

Question: What about the TGI (M14 melanoma) of the same compound?
Answer: > 100 µM

Question: What about the GI50 (MALME-3M melanoma) of the same compound?
Answer: 19.6 µM

Question: And the TGI (MALME-3M melanoma)?
Answer: 50.3 µM

Question: And the GI50 (MCF7 breast)?
Answer: 5.3 µM

Question: What about the TGI (MCF7 breast) of the same compound?
Answer: 37.8 µM

Question: What about the GI50 (MDA-MB-231 breast) of the same compound?
Answer: 16.6 µM

Question: And the TGI (MDA-MB-231 breast)?
Answer: 54.2 µM

Question: What about the GI50 (MDA-MB-435) of the same compound?
Answer: 18.3 µM

Question: What about the TGI (MDA-MB-435) of the same compound?
Answer: 60.9 µM

Question: And the GI50 (MOLT-4 leukemia)?
Answer: 4.08 µM

Question: What about the TGI (MOLT-4 leukemia) of the same compound?
Answer: > 100 µM

Question: What about the GI50 (NCI-H226 lung) of the same compound?
Answer: 3.05 µM

Question: What about the TGI (NCI-H226 lung) of the same compound?
Answer: 9.19 µM

Question: What about the GI50 (NCI-H23 lung) of the same compound?
Answer: 12.5 µM

Question: What about the TGI (NCI-H23 lung) of the same compound?
Answer: 34.5 µM

Question: What about the GI50 (NCI-H460 lung) of the same compound?
Answer: 10.5 µM

Question: What about the TGI (NCI-H460 lung) of the same compound?
Answer: 33.5 µM

Question: And the GI50 (NCI-H522 lung)?
Answer: 7.67 µM

Question: What about the TGI (NCI-H522 lung) of the same compound?
Answer: 34 µM

Question: And the GI50 (NCI/ADR-RES ovarian)?
Answer: 19.1 µM

Question: And the TGI (NCI/ADR-RES ovarian)?
Answer: 60.4 µM

Question: And the GI50 (OVCAR-3 ovarian)?
Answer: 11.7 µM

Question: What about the TGI (OVCAR-3 ovarian) of the same compound?
Answer: 46.4 µM

Question: What about the GI50 (OVCAR-4 ovarian) of the same compound?
Answer: 20 µM

Question: And the TGI (OVCAR-4 ovarian)?
Answer: > 100 µM

Question: What about the GI50 (OVCAR-5 ovarian) of the same compound?
Answer: 38.9 µM

Question: What about the TGI (OVCAR-5 ovarian) of the same compound?
Answer: 59.5 µM

Question: What about the GI50 (OVCAR-8 ovarian) of the same compound?
Answer: 24.7 µM

Question: And the TGI (OVCAR-8 ovarian)?
Answer: > 100 µM

Question: And the GI50 (PC-3 prostate)?
Answer: 5.78 µM

Question: And the TGI (PC-3 prostate)?
Answer: 35.9 µM

Question: What about the GI50 (RPMI-8226 leukemia) of the same compound?
Answer: 3.81 µM

Question: And the TGI (RPMI-8226 leukemia)?
Answer: 31.6 µM

Question: And the GI50 (RXF 393 renal)?
Answer: 14 µM

Question: And the TGI (RXF 393 renal)?
Answer: 56.7 µM

Question: And the GI50 (SF-268 CNS)?
Answer: 13.7 µM

Question: What about the TGI (SF-268 CNS) of the same compound?
Answer: 51.1 µM

Question: And the GI50 (SF-295 CNS)?
Answer: 17.7 µM

Question: And the TGI (SF-295 CNS)?
Answer: 60.1 µM

Question: What about the GI50 (SF-539 CNS) of the same compound?
Answer: 14.4 µM

Question: And the TGI (SF-539 CNS)?
Answer: 41.8 µM

Question: And the GI50 (SK-MEL-2 melanoma)?
Answer: 6.2 µM

Question: And the TGI (SK-MEL-2 melanoma)?
Answer: 31.1 µM

Question: And the GI50 (SK-MEL-28 melanoma)?
Answer: 13.7 µM

Question: And the TGI (SK-MEL-28 melanoma)?
Answer: 56.9 µM

Question: And the GI50 (SK-MEL-5 melanoma)?
Answer: 21.4 µM

Question: And the TGI (SK-MEL-5 melanoma)?
Answer: 95.5 µM

Question: And the GI50 (SK-OV-3 ovarian)?
Answer: 14.7 µM

Question: What about the TGI (SK-OV-3 ovarian) of the same compound?
Answer: 39.4 µM

Question: What about the GI50 (SN12C renal) of the same compound?
Answer: 23.2 µM

Question: What about the TGI (SN12C renal) of the same compound?
Answer: > 100 µM

Question: And the GI50 (SNB-19 CNS)?
Answer: 17 µM

Question: And the TGI (SNB-19 CNS)?
Answer: 58.1 µM

Question: And the GI50 (SR leukemia)?
Answer: 4.63 µM

Question: What about the TGI (SR leukemia) of the same compound?
Answer: 35.3 µM

Question: And the GI50 (SW-620 colon)?
Answer: 20.9 µM

Question: What about the TGI (SW-620 colon) of the same compound?
Answer: 83.6 µM

Question: What about the GI50 (T-47D breast) of the same compound?
Answer: 13.3 µM

Question: What about the TGI (T-47D breast) of the same compound?
Answer: > 100 µM

Question: And the GI50 (TK-10 renal)?
Answer: 14.6 µM

Question: And the TGI (TK-10 renal)?
Answer: 31.8 µM

Question: And the GI50 (U251 CNS)?
Answer: 10.3 µM

Question: What about the TGI (U251 CNS) of the same compound?
Answer: > 100 µM

Question: And the GI50 (UACC-257 melanoma)?
Answer: 17.6 µM

Question: What about the TGI (UACC-257 melanoma) of the same compound?
Answer: 59 µM

Question: And the GI50 (UACC-62 melanoma)?
Answer: 6.7 µM

Question: What about the TGI (UACC-62 melanoma) of the same compound?
Answer: 42.8 µM

Question: And the GI50 (UO-31 renal)?
Answer: 14 µM

Question: And the TGI (UO-31 renal)?
Answer: 76.7 µM
